Assays:
[1] = molecular target: T1, SHV-5 β-lactamase (Class A ESBL) (Klebsiella pneumoniae, UniProt P0A3M1); assay: β-Lactamase inhibition, SHV-5; type: biochemical
T1 construct: made in house; host or cells: E. coli BL21(DE3)
Procedure, shortened: (§1)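 Native untagged β-lactamases were expressed in E. coli BL21(DE3), then purified by cation exchange and gel filtration. Enzyme was preincubated with inhibitor for 15 min at 37 °C before substrate was added. Imipenem (A300) served KPC-2 and cefotaxime (A260) served SHV-5. IC50 was taken from initial hydrolysis rates relative to no-inhibitor controls.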

[2] = molecular target: T2, KPC-2 β-lactamase (Class A carbapenemase) (Klebsiella pneumoniae, UniProt Q9F663); assay: β-Lactamase inhibition, KPC-2; type: biochemical; settings: imipenem substrate, 300 nm; 15 min preincubation at 37° C., PBS pH 7.4
T2 construct: made in house; host or cells: E. coli BL21(DE3)
T2 sequence (Q9F663 25-293, looked up): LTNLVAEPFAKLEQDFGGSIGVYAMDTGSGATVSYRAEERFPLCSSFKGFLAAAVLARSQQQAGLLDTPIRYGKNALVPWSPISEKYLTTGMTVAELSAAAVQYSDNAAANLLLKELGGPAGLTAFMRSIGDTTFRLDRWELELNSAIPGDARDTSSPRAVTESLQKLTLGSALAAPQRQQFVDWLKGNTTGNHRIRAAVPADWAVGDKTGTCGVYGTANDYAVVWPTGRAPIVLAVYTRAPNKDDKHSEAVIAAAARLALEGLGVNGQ
Procedure, shortened: as §1

[3] = molecular target: T3, VIM-2 metallo-β-lactamase (Class B) (Pseudomonas aeruginosa, UniProt Q9K2N0); assay: β-Lactamase inhibition, VIM-2; type: biochemical; settings: nitrocefin 100 μM, 486 nm; 15 min preincubation at 37° C., PBS pH 7.4
T3 construct: made in house; host or cells: E. coli BL21(DE3)
Procedure, shortened: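 Nitrocefin hydrolysis, read at 486 nm over 10 min, served as the measure of VIM-2 activity. The enzyme had been incubated with compound for 15 min at 37 °C before 100 μM substrate was added, and IC50 values were fitted from percent inhibition of the initial rate.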

[4] = molecular target: T4, p99 AmpC β-lactamase (Class C) (Enterobacter cloacae, UniProt P05364); assay: β-Lactamase inhibition, p99 AmpC; type: biochemical
T4 construct: made in house; host or cells: E. coli BL21(DE3)
T4 sequence (P05364 21-381): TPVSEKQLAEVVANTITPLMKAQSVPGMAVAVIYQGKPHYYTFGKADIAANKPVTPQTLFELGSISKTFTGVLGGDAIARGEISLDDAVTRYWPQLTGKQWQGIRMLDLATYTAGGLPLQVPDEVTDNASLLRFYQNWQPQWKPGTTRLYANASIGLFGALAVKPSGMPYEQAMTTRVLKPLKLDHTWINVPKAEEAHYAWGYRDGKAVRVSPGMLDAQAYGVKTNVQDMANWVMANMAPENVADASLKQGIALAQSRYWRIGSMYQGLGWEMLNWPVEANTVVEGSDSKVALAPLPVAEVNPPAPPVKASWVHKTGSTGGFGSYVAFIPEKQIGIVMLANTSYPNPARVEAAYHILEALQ

[5] = molecular target: T5, OXA-1 β-lactamase (Class D oxacillinase) (Escherichia coli, UniProt P13661); assay: β-Lactamase inhibition, OXA-1; type: biochemical; settings: nitrocefin 100 μM, 486 nm; 15 min preincubation at 37° C., PBS pH 7.4
T5 construct: made in house; host or cells: E. coli BL21(DE3)
T5 sequence (P13661 26-276): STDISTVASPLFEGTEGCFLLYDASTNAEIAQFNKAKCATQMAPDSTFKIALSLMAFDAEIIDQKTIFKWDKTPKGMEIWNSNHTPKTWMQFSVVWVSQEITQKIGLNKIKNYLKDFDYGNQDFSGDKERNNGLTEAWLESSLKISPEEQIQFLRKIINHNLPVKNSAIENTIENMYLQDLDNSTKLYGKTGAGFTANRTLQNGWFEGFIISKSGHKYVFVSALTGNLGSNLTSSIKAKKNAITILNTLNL
Procedure, shortened: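 Untagged enzyme from E. coli BL21(DE3), purified by Capto S then Superdex 75; 15 min 37 °C preincubation with inhibitor; KPC-2 read with imipenem at 300 nm, SHV-5 with cefotaxime at 260 nm, OXA-1 with nitrocefin 100 μM final at 486 nm; 10 min kinetic read; IC50 vs uninhibited wells.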

[6] = system: E. coli ESBL4 expressing CTX-M-15; assay: Broth microdilution MIC, E. coli ESBL4 CTX-M-15; type: cell-based; settings: fixed 4 μg/mL ceftazidime; CAMHB, 16-20 hours at 37° C.
Procedure, shortened: (§2)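 The MIC, judged visually after 16-20 hours at 37° C, is the lowest test-compound level stopping growth when combined with a β-lactam at a constant 4 μg/ml. Compound was titrated two-fold over 32 to 0.25 μg/ml in cation-adjusted Mueller Hinton broth.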

[7] = system: E. cloacae 144200 expressing Class C P99 AmpC; assay: Broth microdilution MIC, E. cloacae 144200 p99 AmpC; type: cell-based; settings: fixed 4 μg/mL ceftazidime; CAMHB, 16-20 hours at 37° C.
Procedure, shortened: as §2

[8] = system: K. pneumoniae 156319 expressing KPC-3; assay: Broth microdilution MIC, K. pneumoniae 156319 KPC-3; type: cell-based; settings: fixed 4 μg/mL meropenem; CAMHB, 16-20 hours at 37° C.
Procedure, shortened: as §2

[9] = system: P. aeruginosa Ps296 expressing VIM-2; assay: Broth microdilution MIC, P. aeruginosa Ps296 VIM-2; type: cell-based; settings: fixed 4 μg/mL meropenem; CAMHB, 16-20 hours at 37° C.
Procedure, shortened: as §2

[10] = system: K. pneumoniae A-1797 expressing KPC-2 and VIM-4; assay: Broth microdilution MIC, K. pneumoniae A-1797 KPC-2/VIM-4; type: cell-based; settings: fixed 4 μg/mL meropenem; CAMHB, 16-20 hours at 37° C.
Procedure, shortened: as §2

[11] = system: S. aureus MSSA-7 producing penicillinase PC-1; assay: Broth microdilution MIC, S. aureus MSSA-7 PC-1; type: cell-based; settings: fixed 4 μg/mL piperacillin; CAMHB, 16-20 hours at 37° C.
Procedure, shortened: as §2

T1 sequence (P0A3M1 22-286): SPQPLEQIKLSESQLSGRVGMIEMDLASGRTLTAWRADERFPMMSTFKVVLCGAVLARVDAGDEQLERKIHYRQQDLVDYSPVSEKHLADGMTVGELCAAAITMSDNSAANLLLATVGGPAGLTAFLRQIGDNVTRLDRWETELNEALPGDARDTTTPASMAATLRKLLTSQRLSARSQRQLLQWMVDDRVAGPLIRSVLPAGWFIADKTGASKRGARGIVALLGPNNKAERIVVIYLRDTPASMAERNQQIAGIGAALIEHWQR

Structure (SMILES)	IC50 [1]	IC50 [2]	IC50 [3]	IC50 [4]	IC50 [5]	MIC of example compound in presence of fixed β-lactam: Fixed CAZ, E. coli ESBL4 CTX-M-15 [6]	MIC of example compound in presence of fixed β-lactam: Fixed CAZ, E. cl. 144200 p99 AmpC [7]	MIC of example compound in presence of fixed β-lactam: Fixed Mero, K. P. 156319 KPC-3 [8]	MIC of example compound in presence of fixed β-lactam: Fixed Mero, P. aerug. Ps296 VIM-2 [9]	MIC of example compound in presence of fixed β-lactam: Fixed Mero, K. P. A-1797 KPC-2 VIM-4 [10]	MIC of example compound in presence of fixed β-lactam: Fixed Pip, S. aureus MSSA-7 PC-1 [11]
COC1CN(CC(=O)N[C@H]2Cc3cccc(C(=O)O)c3OB2O)CCC1N (some centres unmarked) [Example 21, 3-[2-(4-Amino-3-methoxy-piperidin-1-yl)-acetylamino]-2-hydroxy-3,4-dihydro-2H-benzo[e][1,2]oxaborinine-8-carboxylic acid]	< 100 nM	100 to 1000 nM	1000 to 10000 nM	< 100 nM	< 100 nM	C (the MIC in the presence of <4 μg/mL of a β-lactamase inhibitor)	C (the MIC in the presence of <4 μg/mL of a β-lactamase inhibitor)	C (the MIC in the presence of <4 μg/mL of a β-lactamase inhibitor)	B (the MIC in the presence of between 8 and 32 μg/mL of a β-lactamase inhibitor)	A (an MIC of the fixed β-lactam antibiotic in the presence of >32 μg/mL of a β-lactamase inhibitor)	C (the MIC in the presence of <4 μg/mL of a β-lactamase inhibitor)
O=C(CN1CCNCC1)N[C@H]1Cc2cccc(C(=O)O)c2OB1O [Example 4, 2-Hydroxy-3-(2-piperazin-1-yl-acetylamino)-3,4-dihydro-2H-benzo[e][1,2]oxaborinine-8-carboxylic acid]	< 100 nM	< 100 nM	1000 to 10000 nM	< 100 nM	100 to 1000 nM	C (the MIC in the presence of <4 μg/mL of a β-lactamase inhibitor)	C (the MIC in the presence of <4 μg/mL of a β-lactamase inhibitor)	C (the MIC in the presence of <4 μg/mL of a β-lactamase inhibitor)	B (the MIC in the presence of between 8 and 32 μg/mL of a β-lactamase inhibitor)	B (the MIC in the presence of between 8 and 32 μg/mL of a β-lactamase inhibitor)	C (the MIC in the presence of <4 μg/mL of a β-lactamase inhibitor)
CN1CCC(C(=O)N[C@H]2Cc3cccc(C(=O)O)c3OB2O)(N(C)C)CC1 [Example 51, 3-[(4-Dimethylamino-1-methyl-piperidine-4-carbonyl)-amino]-2-hydroxy-3,4-dihydro-2H-benzo[e][1,2]oxaborinine-8-carboxylic acid]	1000 to 10000 nM	< 100 nM	1000 to 10000 nM	< 100 nM	100 to 1000 nM	C (the MIC in the presence of <4 μg/mL of a β-lactamase inhibitor)	C (the MIC in the presence of <4 μg/mL of a β-lactamase inhibitor)	C (the MIC in the presence of <4 μg/mL of a β-lactamase inhibitor)	C (the MIC in the presence of <4 μg/mL of a β-lactamase inhibitor)	A (an MIC of the fixed β-lactam antibiotic in the presence of >32 μg/mL of a β-lactamase inhibitor)	C (the MIC in the presence of <4 μg/mL of a β-lactamase inhibitor)
N=C(N)NCCN1CCC(CCC(=O)N[C@H]2Cc3cccc(C(=O)O)c3OB2O)CC1 [Example 34, 3-{3-[1-(2-Guanidino-ethyl)-piperidin-4-yl]-propionylamino}-2-hydroxy-3,4-dihydro-2H-benzo[e][1,2]oxaborinine-8-carboxylic acid]	< 100 nM	100 to 1000 nM	10000 to 100000 nM	100 to 1000 nM	100 to 1000 nM	C (the MIC in the presence of <4 μg/mL of a β-lactamase inhibitor)	C (the MIC in the presence of <4 μg/mL of a β-lactamase inhibitor)	A (an MIC of the fixed β-lactam antibiotic in the presence of >32 μg/mL of a β-lactamase inhibitor)	A (an MIC of the fixed β-lactam antibiotic in the presence of >32 μg/mL of a β-lactamase inhibitor)	A (an MIC of the fixed β-lactam antibiotic in the presence of >32 μg/mL of a β-lactamase inhibitor)	C (the MIC in the presence of <4 μg/mL of a β-lactamase inhibitor)
O=C(CN[C@@H]1CCNC1)N[C@H]1Cc2cccc(C(=O)O)c2OB1O [Example 9, 2-Hydroxy-3-[2-(pyrrolidin-3-ylamino)-acetylamino]-3,4-dihydro-2H-benzo[e][1,2]oxaborinine-8-carboxylic acid]	< 100 nM	< 100 nM	10000 to 100000 nM	< 100 nM	< 100 nM	C (the MIC in the presence of <4 μg/mL of a β-lactamase inhibitor)	C (the MIC in the presence of <4 μg/mL of a β-lactamase inhibitor)	C (the MIC in the presence of <4 μg/mL of a β-lactamase inhibitor)	A (an MIC of the fixed β-lactam antibiotic in the presence of >32 μg/mL of a β-lactamase inhibitor)	A (an MIC of the fixed β-lactam antibiotic in the presence of >32 μg/mL of a β-lactamase inhibitor)	C (the MIC in the presence of <4 μg/mL of a β-lactamase inhibitor)
O=C(CN1CCN(CCO)CC1)N[C@H]1Cc2cccc(C(=O)O)c2OB1O [Example 18, 2-Hydroxy-3-{2-[4-(2-hydroxy-ethyl)-piperazin-1-yl]-acetylamino}-3,4-dihydro-2H-benzo[e][1,2]oxaborinine-8-carboxylic acid]	100 to 1000 nM	100 to 1000 nM	100 to 1000 nM	< 100 nM	< 100 nM	B (the MIC in the presence of between 8 and 32 μg/mL of a β-lactamase inhibitor)	C (the MIC in the presence of <4 μg/mL of a β-lactamase inhibitor)	C (the MIC in the presence of <4 μg/mL of a β-lactamase inhibitor)	B (the MIC in the presence of between 8 and 32 μg/mL of a β-lactamase inhibitor)	B (the MIC in the presence of between 8 and 32 μg/mL of a β-lactamase inhibitor)	A (an MIC of the fixed β-lactam antibiotic in the presence of >32 μg/mL of a β-lactamase inhibitor)
CNC1CCN(CC(=O)N[C@H]2Cc3cccc(C(=O)O)c3OB2O)CC1O (some centres unmarked) [Example 20, 2-Hydroxy-3-[2-(3-hydroxy-4-methylamino-piperidin-1-yl)-acetylamino]-3,4-dihydro-2H-benzo[e][1,2]oxaborinine-8-carboxylic acid]	100 to 1000 nM	100 to 1000 nM	1000 to 10000 nM	< 100 nM	< 100 nM	C (the MIC in the presence of <4 μg/mL of a β-lactamase inhibitor)	C (the MIC in the presence of <4 μg/mL of a β-lactamase inhibitor)	C (the MIC in the presence of <4 μg/mL of a β-lactamase inhibitor)	B (the MIC in the presence of between 8 and 32 μg/mL of a β-lactamase inhibitor)	A (an MIC of the fixed β-lactam antibiotic in the presence of >32 μg/mL of a β-lactamase inhibitor)	C (the MIC in the presence of <4 μg/mL of a β-lactamase inhibitor)

— patent publication US10294248B2, “Beta-lactamase inhibitors” (VenatoRx Pharmaceuticals, Inc., priority 2013, dated 2019)
